This is an account of results in US20240374618A1, “COMPOSITION OF TANNIC ACID AND VITAMIN D AND METHODS OF USE” (Nulastin, Inc., priority 2021, published 2024).

One experiment has as its system human dermal fibroblasts. Briefly: Immunodetection of elastin in cultured human dermal fibroblasts. Type of experiment: cell-based. The note with it: for elastin concentration: FIGS. 1A-1C. As for the experimental part: Biological effects of tannic acid in the presence of hyaluronic acid or ferulic acid were tested on dermal fibroblasts derived from punch biopsies of healthy skin. All fibroblasts were isolated by allowing migration out of skin explants and passaged by trypsinization. Fibroblasts were maintained in alpha-minimum essential medium supplemented with 20 mM HEPES, 1% antibiotics and antimycotics, 1% L-Glutamate and 2% fetal bovine serum (FBS). Cells were plated (50×10^5 cells/dish) to reach confluency and were cultured for 7 days in the presence or absence of hyaluronic acid (0.1%), ferulic acid (5 μg/mL), tannic acid (2 μg/mL), or a combination thereof.
Cell cultures prepared according to Example 1 maintained in the presence or absence of tannic acid, hyaluronic acid, or ferulic acid were fixed in cold 100% methanol at […] for detection of elastin or in 4% paraformaldehyde at room temperature for detection of collagen I. The multiple parallel cultures were incubated with […] of polyclonal antibody to tropoelastin (Elastin Products, Owensville, MI), or polyclonal antibody to collagen type I (Chemicon, Temecula, CA). Cultures were incubated with the respective fluorescein-conjugated goat anti-rabbit, goat anti-mouse, or rabbit anti-goat secondary antibodies. Nuclei were counter stained with propidium iodide (Sigma, St. Louis, MO). All cultures were examined with a Nikon Eclipse E1000 microscope attached to a cooled CCD camera (QImaging, Retiga EX) and analyzed with the computer-generated morphometric analysis system, in which the Image-Pro Plus software (Media Cybernetics, Silver Springs, MD) estimates the proportion of areas marked with green fluorescence, in relation to the entire (1 square mm) analyzed field.
Cultured human dermal fibroblasts were grown in the presence or absence of tannic acid at low concentration (2 μg/mL) and high concentration (20 μg/mL). Immunodetection of elastin was performed as described in Example 2.
(§1) Cultured human dermal fibroblasts were grown in the presence of or absence of vitamin D (10^−7 M), tannic acid ([…]), or a combination of vitamin D and tannic acid (2 μg/mL) (FIGS. 2A-2B and FIGS. 3A-3C). Immunodetection of elastin was performed as described above.
Cultured human dermal fibroblasts were grown in the presence of or absence hyaluronic acid (0.1%), tannic acid (2 μg/mL), or a combination of hyaluronic acid (0.1%) and tannic acid (2 μg/mL). Immunodetection of elastin was performed as described above.
Cultured human dermal fibroblasts were grown in the presence or absence of ferulic acid (5 μg/mL), tannic acid (2 μg/mL), or a combination of ferulic acid (5 μg/mL) and tannic acid (2 μg/mL). Immunodetection of elastin and collagen I was performed as described above. Results are shown in FIGS. 5A-5C, and FIGS. 6A-6B for elastin and FIGS. 7A-7C and FIG. 8 for collagen.
Cultured human dermal fibroblasts were grown in the presence or absence of ferulic acid (20 μM), tannic acid (2 μg/mL), or copper sulfate (2 μM). Fibroblasts were also grown in presence of a combination of ferulic acid (20 μM) and copper sulfate (2 μM), a combination of ferulic acid (20 μM) and tannic acid (2 μg/mL), and a combination of tannic acid (2 μg/mL) and copper sulfate (2 μM). Immunodetection of elastin was performed as described above.

The next experiment concerns fibroblast cultures. Kind of experiment: Amount of tropoelastin in fibroblast cultures measured using PCR. The class given is cell-based, human. The note with it: tannic acid added to cultures that contained vitamin D3; PCR after 18 hours; FIG. 2A. As for the experimental part: FIG. 2A depicts the amount of tropoelastin in fibroblast cultures measured using PCR after 18 hours.
as §1

hyaluronic acid: the elastin production entry in the experiment with human dermal fibroblasts (hyaluronic acid (0.1%) alone) is “inhibition of elastin production”.
Turning to vitamin D, in the experiment on human dermal fibroblasts (vitamin D (10^−7 M) alone), the elastin production result is on record as “inhibition of elastin production”.
As for `O=C(OC[C@H]1O[C@@H](OC(=O)c2cc(O)c(O)c(OC(=O)c3cc(O)c(O)c(O)c3)c2)[C@H](OC(=O)c2cc(O)c(O)c(OC(=O)c3cc(O)c(O)c(O)c3)c2)[C@@H](OC(=O)c2cc(O)c(O)c(OC(=O)c3cc(O)c(O)c(O)c3)c2)[C@@H]1OC(=O)c1cc(O)c(O)c(OC(=O)c2cc(O)c(O)c(O)c2)c1)c1cc(O)c(O)c(OC(=O)c2cc(O)c(O)c(O)c2)c1` [tannic acid], the “net deposition of elastin” value in the experiment with human dermal fibroblasts (tannic acid (2 μg/mL) added to hyaluronic acid (0.1%)) and in the experiment with human dermal fibroblasts (tannic acid (2 μg/mL) added to vitamin D (10^−7 M)) was “improvement in net deposition of elastin” in each case. Besides, the production of elastin entry in the experiment with human dermal fibroblasts (tannic acid (2 μg/mL) in the presence of ferulic acid (5 μg/mL)) is “improved production of elastin even in the presence of ferulic acid”. Besides, the values for the elastin concentration result with human dermal fibroblasts (tannic acid at high concentration (20 μg/mL)) and in the experiment with human dermal fibroblasts (tannic acid at low concentration (2 μg/mL)) were “caused elastosis” and “improved elastin concentration”, respectively. In addition, the amount of tropoelastin result in the experiment on fibroblast cultures is “increased the amount of tropoelastin”.
